Active and inactive are the calls of the source.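 Rule for the calls: active = parasite count per well reduced by over 3 SD from the mean, with host cell number above 80% of untreated; inactive = the rest.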
These molecules were tested on L. donovani amastigotes in THP-1 macrophages, DAPI imaging, 72 h (assay: L. donovani intracellular amastigote growth inhibitors, imaging, THP-1 host macrophages, single concentration (AID 977614);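 note: signal is the parasite per host cell ratio from DAPI stained kinetoplasts and nuclei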).

SMILES	AC50
O=C(CC1CC1)N1[C@@H]2CN(S(=O)(=O)c3ccccc3F)c3ccccc3[C@@H]2[C@@H]1CO	> 10 µM (inactive)
O=C(Nc1ccc(Cl)cc1)N1C[C@@H]2[C@H](c3ccccc31)[C@H](CO)N2CC1CCCCC1	> 10 µM (inactive)
C[C@H](CO)N1C[C@H](C)[C@@H](CN(C)C(=O)Nc2ccc3c(c2)OCO3)OCc2cn(nn2)CCCC1=O	> 10 µM (inactive)
O=C(Cc1cccnc1)N1[C@@H](CO)[C@@H](c2ccccc2)[C@@H]1CNCC1CCC1	> 10 µM (inactive)
Cc1noc(C)c1S(=O)(=O)N(C)C[C@@H]1OCc2cn(nn2)CCCC(=O)N([C@H](C)CO)C[C@H]1C	> 10 µM (inactive)
C[C@H](CO)N1C[C@H](C)[C@@H](CN(C)S(=O)(=O)c2cccc(C#N)c2)OCc2cn(nn2)CCCC1=O	> 10 µM (inactive)
COc1ccc(C(=O)N2C[C@@H]3[C@H](c4ccccc42)[C@H](CO)N3C(=O)Cc2ccccn2)cc1	> 10 µM (inactive)
CCC(=O)N1[C@H](CO)[C@H](c2ccccc2)[C@H]1CN(CC)C(=O)c1cccc(F)c1	> 10 µM (inactive)
C/C=C/c1ccc([C@H]2[C@@H](CO)N[C@@H]2CN(CC)C(=O)CN2CCOCC2)cc1	> 10 µM (inactive)
Cc1noc(C)c1NC(=O)N(C)C[C@H]1OCc2cnnn2CCCC(=O)N([C@H](C)CO)C[C@@H]1C	> 10 µM (inactive)
OC[C@H]1[C@H]2c3ccccc3NC[C@H]2N1Cc1cccnc1	> 10 µM (inactive)
COc1ccc(C(=O)N2C[C@H]3[C@@H](c4ccccc42)[C@H](CO)N3C(=O)Cc2ccccn2)cc1	> 10 µM (inactive)
O=C(Cc1cccnc1)N1[C@H](CO)[C@H](c2ccccc2)[C@H]1CNCC1CCC1	> 10 µM (inactive)
C[C@@H]1CN([C@@H](C)CO)C(=O)CCCn2nncc2CO[C@H]1CN(C)C(=O)Nc1ccc(-c2cccs2)cc1	> 10 µM (inactive)
O=C(NC[C@@H]1[C@@H](c2ccccc2)[C@@H](CO)N1C(=O)Cc1ccncc1)C1CCC1	> 10 µM (inactive)
CCCC#Cc1ccc([C@H]2[C@@H](CO)N(C(C)=O)[C@H]2CN(C)C(=O)C2CC2)cc1	> 10 µM (inactive)
C[C@H](CO)N1C[C@H](C)[C@H](CN(C)Cc2ccccc2)OCc2cn(nn2)CCCC1=O	> 10 µM (inactive)
C/C=C/c1ccc([C@H]2[C@H](CO)N(S(C)(=O)=O)[C@H]2CNCC2CCC2)cc1	> 10 µM (inactive)
CC(=O)N1[C@H](CO)[C@@H](c2ccccc2)[C@@H]1CNC(=O)CN1CCOCC1	> 10 µM (inactive)

SMILES	AC50
CCC(=O)N(CC(C)C)C[C@@H]1[C@@H](c2ccccc2)[C@H](CO)N1C(=O)C1CCC1	> 10 µM (inactive)
CC(=O)N1[C@H](CO)[C@@H](c2ccccc2)[C@H]1CN(CC1CCC1)C(=O)CN(C)C	> 10 µM (inactive)
OC[C@H]1[C@H]2c3ccccc3NC[C@H]2N1CC1CCOCC1	> 10 µM (inactive)
CCC(=O)N(C)C[C@@H]1[C@@H](c2ccccc2)[C@H](CO)N1Cc1cccnc1	> 10 µM (inactive)
O=C(C1CCCCC1)N1[C@@H]2CNc3ccccc3[C@@H]2[C@@H]1CO	> 10 µM (inactive)
CCC(=O)N1[C@H](CO)[C@H](c2ccc(-c3cccc(OC)c3)cc2)[C@@H]1CNC(C)=O	> 10 µM (inactive)
C[C@@H]1CN([C@H](C)CO)C(=O)CCCn2nncc2CO[C@@H]1CN(C)C(=O)CCC(F)(F)F	> 10 µM (inactive)
COc1ccc(NC(=O)N(C)C[C@H]2OCc3cnnn3CCCC(=O)N([C@@H](C)CO)C[C@@H]2C)c(OC)c1	> 10 µM (inactive)
COc1ccc(C(=O)N2C[C@H]3[C@@H](c4ccccc42)[C@@H](CO)N3C(=O)NC(C)C)cc1	> 10 µM (inactive)
OC[C@H]1[C@@H]2c3ccccc3NC[C@@H]2N1Cc1ccccc1Cl	> 10 µM (inactive)
Cc1ccc(S(=O)(=O)N2C[C@H]3[C@@H](c4ccccc42)[C@H](CO)N3Cc2cccnc2)cc1	> 10 µM (inactive)
C[C@@H]1CN([C@@H](C)CO)C(=O)CCCn2nncc2CO[C@H]1CN(C)Cc1ccc(C(=O)Nc2ccccc2N)cc1	> 10 µM (inactive)
O=C(c1ccccn1)N1C[C@H]2[C@@H](c3ccccc31)[C@H](CO)N2C(=O)C1CCCCC1	> 10 µM (inactive)
C/C=C/c1ccc([C@H]2[C@@H](CO)N(S(=O)(=O)CC)[C@H]2CN(C)C(=O)CC)cc1	> 10 µM (inactive)
C[C@@H]1CN([C@H](C)CO)C(=O)CCCn2nncc2CO[C@H]1CN(C)Cc1ccc(C(=O)Nc2ccccc2N)cc1	> 10 µM (inactive)
CCN(C[C@@H]1[C@H](c2ccccc2)[C@H](CO)N1C(=O)COC)S(C)(=O)=O	> 10 µM (inactive)
CCN(C[C@@H]1N[C@@H](CO)[C@H]1c1ccc(-c2ccc(F)cc2)cc1)C(=O)CN(C)C	> 10 µM (inactive)
O=C(C1CCC1)N1C[C@@H]2[C@H](c3ccccc31)[C@H](CO)N2C(=O)Nc1cccc(F)c1	> 10 µM (inactive)
O=C(c1ccccc1)N1C[C@H]2[C@@H](c3ccccc31)[C@@H](CO)N2Cc1ccccn1	> 10 µM (inactive)

Reference: PubChem BioAssay AID977614 (Broad Institute, 2014)
